# Data: ChEMBL document CHEMBL3046161, “Synthesis of potential antitubercular and antimicrobial s-triazine-based scaffolds via Suzuki cross-coupling reaction” (2013)
# Assays:
# Shigella flexneri [1] = test: Antibacterial activity against Shigella flexneri MTCC 1457 assessed as growth inhibition at 100 ug/disk after 24 hr by agar disk diffusion method; type: functional; details: MTCC 1457, 24 h, read-out: IZ
# Pseudomonas aeruginosa [2] = test: Antibacterial activity against Pseudomonas aeruginosa MTCC 741 assessed as growth inhibition after 24 hr by agar streak dilution method; type: functional; details: MTCC 741, 24 h
# Escherichia coli = test: microbe, parasite or virus in culture; details: MTCC 739, 24 h, read-out: IZ
# Description: Antibacterial activity against Escherichia coli MTCC 739 assessed as growth inhibition at 100 ug/disk after 24 hr by agar disk diffusion method
# Staphylococcus aureus [3] = test: Antibacterial activity against Staphylococcus aureus MTCC 96 assessed as growth inhibition at 100 ug/disk after 24 hr by agar disk diffusion method; details: MTCC 96, 24 h, read-out: IZ
# Klebsiella pneumoniae [4] = test: Antibacterial activity against Klebsiella pneumoniae MTCC 109 assessed as growth inhibition after 24 hr by agar streak dilution method; type: functional; details: MTCC 109, 24 h
# Proteus vulgaris [5] = test: Antibacterial activity against Proteus vulgaris MTCC 1771 assessed as growth inhibition at 100 ug/disk after 24 hr by agar disk diffusion method; type: functional; details: MTCC 1771, 24 h, read-out: IZ
# Shigella flexneri [6] = test: Antibacterial activity against Shigella flexneri MTCC 1457 assessed as growth inhibition after 24 hr by agar streak dilution method; type: functional; details: MTCC 1457, 24 h
# Klebsiella pneumoniae [7] = test: microbe, parasite or virus in culture; details: MTCC 109, 24 h, read-out: IZ
# Description: Antibacterial activity against Klebsiella pneumoniae MTCC 109 assessed as growth inhibition at 100 ug/disk after 24 hr by agar disk diffusion method
# Bacillus cereus [8] = test: Antibacterial activity against Bacillus cereus MTCC 430 assessed as growth inhibition at 100 ug/disk after 24 hr by agar disk diffusion method; type: functional; details: MTCC 430, 24 h, read-out: IZ
# Pseudomonas aeruginosa [9] = test: microbe, parasite or virus in culture; details: MTCC 741, 24 h, read-out: IZ
# Description: Antibacterial activity against Pseudomonas aeruginosa MTCC 741 assessed as growth inhibition at 100 ug/disk after 24 hr by agar disk diffusion method
# Proteus vulgaris [10] = test: Antibacterial activity against Proteus vulgaris MTCC 1771 assessed as growth inhibition after 24 hr by agar streak dilution method; type: functional; details: MTCC 1771, 24 h
# Staphylococcus aureus [11] = test: Antibacterial activity against Staphylococcus aureus MTCC 96 assessed as growth inhibition after 24 hr by agar streak dilution method; type: functional; details: MTCC 96, 24 h
# Bacillus cereus [12] = test: Antibacterial activity against Bacillus cereus MTCC 430 assessed as growth inhibition after 24 hr by agar streak dilution method; type: functional; details: MTCC 430, 24 h
# Salmonella typhi [13] = test: Antibacterial activity against Salmonella enterica subsp. enterica serovar Typhi MTCC 733 assessed as growth inhibition after 24 hr by agar streak dilution method; type: functional; details: MTCC 733, 24 h
# Salmonella typhi [14] = test: Antibacterial activity against Salmonella enterica subsp. enterica serovar Typhi MTCC 733 assessed as growth inhibition at 100 ug/disk after 24 hr by agar disk diffusion method; type: functional; details: MTCC 733, 24 h, read-out: IZ
compound,measurement,setting,value
O=C(O)c1cn(C2CC2)c2cc(N3CCNCC3)c(F)cc2c1=O [CIPROFLOXACIN],zone of inhibition at 100 µg/disc,Shigella flexneri [1],32 mm
same,MIC,Pseudomonas aeruginosa [2],0.78 µg/mL
same,zone of inhibition at 100 µg/disc,Escherichia coli,32 mm
same,zone of inhibition at 100 µg/disc,Staphylococcus aureus [3],30 mm
same,MIC,Klebsiella pneumoniae [4],0.78 µg/mL
same,zone of inhibition at 100 µg/disc,Proteus vulgaris [5],31 mm
same,MIC,Shigella flexneri [6],1.56 µg/mL
same,zone of inhibition at 100 µg/disc,Klebsiella pneumoniae [7],33 mm
same,zone of inhibition at 100 µg/disc,Bacillus cereus [8],31 mm
same,zone of inhibition at 100 µg/disc,Pseudomonas aeruginosa [9],33 mm
same,MIC,Proteus vulgaris [10],0.39 µg/mL
same,MIC,Staphylococcus aureus [11],1.56 µg/mL
same,MIC,Bacillus cereus [12],0.39 µg/mL
same,MIC,Salmonella typhi [13],0.39 µg/mL
same,zone of inhibition at 100 µg/disc,Salmonella typhi [14],30 mm
